Converted amounts (≈) assume the structure as drawn.
Legend:
Escherichia coli = test: Antibacterial activity against Escherichia coli MTCC 443 after 24 hrs by serial dilution method; assay type: functional
Bacillus subtilis = test: Antibacterial activity against Bacillus subtilis MTCC 441 after 24 hrs by serial dilution method; assay type: functional; conditions: MTCC 441, 24 h
HeLa = test: Cytotoxicity against human HeLa cells assessed as reduction in cell growth measured after 48 hrs by sulforhodamine B assay; assay type: functional, cell-based
SK-OV-3 = test: Cytotoxicity against human SKOV3 cells assessed as reduction in cell growth measured after 48 hrs by sulforhodamine B assay; assay type: functional, cell-based; conditions: SK-OV-3, 48 h
Pseudomonas sp. = test: Antibacterial activity against Pseudomonas sp. 2496 after 24 hrs by serial dilution method; assay type: functional
Candida albicans = test: Antifungal activity against Candida albicans MTCC 227 after 72 hrs by serial dilution method; assay type: functional; conditions: MTCC 227, 72 h
DU-145 = test: Cytotoxicity against human DU145 cells assessed as reduction in cell growth measured after 48 hrs by sulforhodamine B assay; assay type: functional, cell-based; conditions: DU-145, 48 h
Priestia megaterium = test: Antibacterial activity against Bacillus megaterium MTCC 428 after 24 hrs by serial dilution method; assay type: functional; conditions: MTCC 428, 24 h
A549 = test: Cytotoxicity against human A549 cells assessed as reduction in cell growth measured after 48 hrs by sulforhodamine B assay; assay type: functional, cell-based; conditions: A549, 48 h

## O=C(Cc1ccccc1)N1CCCN(c2ccn3cc(-c4ccc(F)cc4)nc3n2)CC1
Escherichia coli; MTCC 443, 24 h
  MIC: 8.4 µg/mL (≈ 19.6 µM)
Bacillus subtilis
  MIC: 38.6 µg/mL (≈ 89.9 µM)
HeLa
  IC50: > 300 µM
SK-OV-3
  IC50: 17.4 µM
Pseudomonas sp.; Pseudomonas sp., 2496, 24 h
  MIC: 10.2 µg/mL (≈ 23.7 µM)
Candida albicans
  MIC: > 100 µg/mL
DU-145
  IC50: > 300 µM
Priestia megaterium
  MIC: 34.2 µg/mL (≈ 79.6 µM)
A549
  IC50: 262 µM

## O=C(C1CC1)N1CCCN(c2ccn3cc(-c4ccc(F)cc4)nc3n2)CC1
Escherichia coli; MTCC 443, 24 h
  MIC: 94.7 µg/mL (≈ 250 µM)
Bacillus subtilis
  MIC: 88.6 µg/mL (≈ 234 µM)
HeLa
  IC50: > 300 µM
SK-OV-3
  IC50: 18.8 µM
Pseudomonas sp.; Pseudomonas sp., 2496, 24 h
  MIC: > 100 µg/mL
Candida albicans
  MIC: > 100 µg/mL
DU-145
  IC50: > 300 µM
Priestia megaterium
  MIC: 92.4 µg/mL (≈ 244 µM)
A549
  IC50: 144 µM

## CN(C)C(=O)N1CCCN(c2ccn3cc(-c4ccc(F)cc4)nc3n2)CC1
Escherichia coli; MTCC 443, 24 h
  MIC: 0.86 µg/mL (≈ 2.25 µM)
Bacillus subtilis
  MIC: 18.6 µg/mL (≈ 48.6 µM)
HeLa
  IC50: > 300 µM
SK-OV-3
  IC50: 71.5 µM
Pseudomonas sp.; Pseudomonas sp., 2496, 24 h
  MIC: 1.8 µg/mL (≈ 4.71 µM)
Candida albicans
  MIC: 4.6 µg/mL (≈ 12 µM)
DU-145
  IC50: 10.6 µM
Priestia megaterium
  MIC: 15.8 µg/mL (≈ 41.3 µM)
A549
  IC50: 5.98 µM

## CN(C)S(=O)(=O)N1CCCN(c2ccn3cc(-c4ccc(F)cc4)nc3n2)CC1
Escherichia coli; MTCC 443, 24 h
  MIC: 1.4 µg/mL (≈ 3.35 µM)
Bacillus subtilis
  MIC: 9.6 µg/mL (≈ 22.9 µM)
HeLa
  IC50: > 300 µM
SK-OV-3
  IC50: > 300 µM
Pseudomonas sp.; Pseudomonas sp., 2496, 24 h
  MIC: 3.8 µg/mL (≈ 9.08 µM)
Candida albicans
  MIC: 8.2 µg/mL (≈ 19.6 µM)
DU-145
  IC50: > 300 µM
Priestia megaterium
  MIC: 10.2 µg/mL (≈ 24.4 µM)
A549
  IC50: 29.9 µM

## O=C(Cc1cccs1)N1CCCN(c2ccn3cc(-c4ccc(F)cc4)nc3n2)CC1
Escherichia coli; MTCC 443, 24 h
  MIC: 3.1 µg/mL (≈ 7.12 µM)
Bacillus subtilis
  MIC: 44.2 µg/mL (≈ 101 µM)
HeLa
  IC50: > 300 µM
SK-OV-3
  IC50: 18.8 µM
Pseudomonas sp.; Pseudomonas sp., 2496, 24 h
  MIC: 3.1 µg/mL (≈ 7.12 µM)
Candida albicans
  MIC: 5.6 µg/mL (≈ 12.9 µM)
DU-145
  IC50: 65.5 µM
Priestia megaterium
  MIC: 38.6 µg/mL (≈ 88.6 µM)
A549
  IC50: > 300 µM

## CC(=O)N1CCCN(c2ccn3cc(-c4ccc(F)cc4)nc3n2)CC1
Escherichia coli; MTCC 443, 24 h
  MIC: 0.92 µg/mL (≈ 2.6 µM)
Bacillus subtilis
  MIC: 84.2 µg/mL (≈ 238 µM)
HeLa
  IC50: 220 µM
SK-OV-3
  IC50: 105 µM
Pseudomonas sp.; Pseudomonas sp., 2496, 24 h
  MIC: 12.6 µg/mL (≈ 35.7 µM)
Candida albicans
  MIC: 9.8 µg/mL (≈ 27.7 µM)
DU-145
  IC50: > 300 µM
Priestia megaterium
  MIC: > 100 µg/mL
A549
  IC50: 103 µM

## GENTAMICIN
Escherichia coli
  MIC: 3 µg/mL
Pseudomonas sp.
  MIC: 6 µg/mL

## O=C(C1CCCCC1)N1CCCN(c2ccn3cc(-c4ccc(F)cc4)nc3n2)CC1
Escherichia coli; MTCC 443, 24 h
  MIC: > 100 µg/mL
Bacillus subtilis
  MIC: > 100 µg/mL
HeLa
  IC50: 170 µM
SK-OV-3
  IC50: 14.5 µM
Pseudomonas sp.; Pseudomonas sp., 2496, 24 h
  MIC: 44.2 µg/mL (≈ 105 µM)
Candida albicans
  MIC: > 100 µg/mL
DU-145
  IC50: 183 µM
Priestia megaterium
  MIC: > 100 µg/mL
A549
  IC50: 104 µM

## O=C(c1ccc(Cl)cc1)N1CCCN(c2ccn3cc(-c4ccc(F)cc4)nc3n2)CC1
Escherichia coli; MTCC 443, 24 h
  MIC: 88.2 µg/mL (≈ 196 µM)
Bacillus subtilis
  MIC: 58.6 µg/mL (≈ 130 µM)
HeLa
  IC50: 8.55 µM
SK-OV-3
  IC50: > 300 µM
Pseudomonas sp.; Pseudomonas sp., 2496, 24 h
  MIC: > 100 µg/mL
Candida albicans
  MIC: > 100 µg/mL
DU-145
  IC50: 15.2 µM
Priestia megaterium
  MIC: 58.6 µg/mL (≈ 130 µM)
A549
  IC50: 110 µM

## COC(=O)N1CCCN(c2ccn3cc(-c4ccc(F)cc4)nc3n2)CC1
Escherichia coli; MTCC 443, 24 h
  MIC: 7.8 µg/mL (≈ 21.1 µM)
Bacillus subtilis
  MIC: 35.8 µg/mL (≈ 96.9 µM)
HeLa
  IC50: 262 µM
SK-OV-3
  IC50: 38.7 µM
Pseudomonas sp.; Pseudomonas sp., 2496, 24 h
  MIC: 18.6 µg/mL (≈ 50.4 µM)
Candida albicans
  MIC: 81.6 µg/mL (≈ 221 µM)
DU-145
  IC50: > 300 µM
Priestia megaterium
  MIC: 47.2 µg/mL (≈ 128 µM)
A549
  IC50: 8.02 µM

Source: ChEMBL document CHEMBL4387765, “Rational design, molecular docking and synthesis of novel homopiperazine linked imidazo[1,2-a]pyrimidine derivatives as potent cytotoxic and antimicrobial agents” (Bioorg Med Chem Lett, 2019)
